Measurements reported in PMC10104807, “Modulation of tau tubulin kinases (TTBK1 and TTBK2) impacts ciliogenesis” (Scientific Reports, 2023).
Values joined by “and” are separate entries in the source; they are usually repeats but may differ in a detail not shown here. Equal values may be shown once. Read-outs that look alike come from different tables or passages of the source.

Tests used:
Assay in all cases: Eurofins enzymatic radiometric kinase assay
Type in all cases: biochemical
[1] = molecular target: T1, TSSK4 (Homo sapiens, UniProt Q6SA08); settings: ATP at Km, duplicate
T1 construct: purchased Eurofins (radiometric) / Eurofins DiscoverX scanMAX / Reaction Biology / SignalChem
T1 sequence (Q6SA08 1-328): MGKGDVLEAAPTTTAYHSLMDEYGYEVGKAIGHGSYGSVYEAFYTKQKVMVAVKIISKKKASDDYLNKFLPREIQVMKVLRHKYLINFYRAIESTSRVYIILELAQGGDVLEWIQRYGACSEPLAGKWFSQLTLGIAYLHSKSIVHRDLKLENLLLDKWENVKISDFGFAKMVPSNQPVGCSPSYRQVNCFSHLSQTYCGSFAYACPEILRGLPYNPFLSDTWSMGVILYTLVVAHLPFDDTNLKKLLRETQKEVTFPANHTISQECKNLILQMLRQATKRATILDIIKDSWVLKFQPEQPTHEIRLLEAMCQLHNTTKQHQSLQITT
Description: (§1) The column labeled “# < 10 PoC in enzyme panel” in Table 1 reports the number of kinases in this 17-member panel inhibited > 90% by each analog.
(§2) Details about the substrate used, protein constructs, controls, and assay protocol for these kinase assays are available at the Eurofins website: https://www.eurofinsdiscoveryservices.com. Reaction Biology Corp. (RBC) radiometric HotSpot kinase assays were carried out at the Km value for ATP in dose–response (10-pt curve) format for MYLK4, RIPK5, and YSK4 in Table S2. Details about the substrate used, protein constructs, controls, and assay protocol for these kinase assays are available at the RBC website: https://www.reactionbiology.com/list-kinase-targets-us-facility. SignalChem developed an ADP-Glo assay to test for enzymatic inhibition of PIKfyve in dose–response (10-pt curve) format in duplicate.

[2] = molecular target: T2, TAOK3 (Homo sapiens, UniProt Q9H2K8); settings: ATP at Km, duplicate
T2 construct: purchased Eurofins (radiometric) / Eurofins DiscoverX scanMAX / Reaction Biology / SignalChem
T2 sequence (Q9H2K8 1-898): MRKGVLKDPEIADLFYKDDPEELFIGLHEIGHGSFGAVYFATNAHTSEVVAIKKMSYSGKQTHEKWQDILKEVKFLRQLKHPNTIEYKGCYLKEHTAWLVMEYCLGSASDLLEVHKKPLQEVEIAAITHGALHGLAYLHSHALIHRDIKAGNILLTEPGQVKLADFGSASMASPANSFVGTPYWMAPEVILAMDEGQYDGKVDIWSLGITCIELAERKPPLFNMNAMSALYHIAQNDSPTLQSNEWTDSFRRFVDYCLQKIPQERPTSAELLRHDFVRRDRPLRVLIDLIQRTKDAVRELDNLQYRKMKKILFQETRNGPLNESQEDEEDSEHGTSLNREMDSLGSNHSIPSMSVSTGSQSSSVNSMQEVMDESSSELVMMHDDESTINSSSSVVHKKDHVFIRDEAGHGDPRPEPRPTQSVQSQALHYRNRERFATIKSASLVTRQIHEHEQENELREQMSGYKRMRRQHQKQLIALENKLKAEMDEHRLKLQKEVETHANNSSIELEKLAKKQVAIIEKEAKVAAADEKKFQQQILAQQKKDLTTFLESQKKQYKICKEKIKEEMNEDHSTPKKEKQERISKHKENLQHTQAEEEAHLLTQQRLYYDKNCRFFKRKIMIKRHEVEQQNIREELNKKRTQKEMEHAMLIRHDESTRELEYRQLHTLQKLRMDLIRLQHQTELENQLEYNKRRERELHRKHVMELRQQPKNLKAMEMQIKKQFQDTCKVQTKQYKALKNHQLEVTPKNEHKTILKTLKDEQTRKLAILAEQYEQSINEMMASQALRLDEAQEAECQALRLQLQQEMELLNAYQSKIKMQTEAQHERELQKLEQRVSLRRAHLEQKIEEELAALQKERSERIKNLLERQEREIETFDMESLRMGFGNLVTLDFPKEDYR
Description: as §1, §2

[3] = molecular target: T3, HIPK1 (Homo sapiens, UniProt Q86Z02); settings: ATP at Km, duplicate
T3 construct: purchased Eurofins (radiometric) / Eurofins DiscoverX scanMAX / Reaction Biology / SignalChem
Description: as §1, §2

[4] = molecular target: T4, TSSK3 (Homo sapiens, UniProt Q96PN8); settings: ATP at Km, duplicate
T4 construct: purchased Eurofins
T4 sequence (Q96PN8 1-268): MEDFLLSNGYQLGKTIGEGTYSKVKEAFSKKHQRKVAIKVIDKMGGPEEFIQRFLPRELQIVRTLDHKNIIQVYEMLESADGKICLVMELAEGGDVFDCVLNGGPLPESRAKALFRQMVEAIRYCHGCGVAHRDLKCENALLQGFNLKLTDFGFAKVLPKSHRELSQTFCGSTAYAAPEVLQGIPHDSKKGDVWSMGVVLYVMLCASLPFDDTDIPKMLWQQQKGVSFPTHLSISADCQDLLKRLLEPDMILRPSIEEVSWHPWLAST
Description: as §1, §2

[5] = molecular target: T5, TTBK1 (Homo sapiens, UniProt Q5TCY1); settings: for TTBK1 PoC: 1 μM, duplicate, lower = greater inhibition
T5 construct: purchased Eurofins
Description: as §1, §2

[6] = molecular target: T6, PAK4 (Homo sapiens, UniProt O96013); settings: ATP at Km, duplicate
T6 construct: purchased Eurofins (radiometric) / Eurofins DiscoverX scanMAX / Reaction Biology / SignalChem
Description: as §1, §2

[7] = molecular target: T7, MARK4 (Homo sapiens, UniProt Q96L34); settings: ATP at Km, duplicate
T7 construct: purchased Eurofins (radiometric) / Eurofins DiscoverX scanMAX / Reaction Biology / SignalChem
T7 sequence (Q96L34 1-752): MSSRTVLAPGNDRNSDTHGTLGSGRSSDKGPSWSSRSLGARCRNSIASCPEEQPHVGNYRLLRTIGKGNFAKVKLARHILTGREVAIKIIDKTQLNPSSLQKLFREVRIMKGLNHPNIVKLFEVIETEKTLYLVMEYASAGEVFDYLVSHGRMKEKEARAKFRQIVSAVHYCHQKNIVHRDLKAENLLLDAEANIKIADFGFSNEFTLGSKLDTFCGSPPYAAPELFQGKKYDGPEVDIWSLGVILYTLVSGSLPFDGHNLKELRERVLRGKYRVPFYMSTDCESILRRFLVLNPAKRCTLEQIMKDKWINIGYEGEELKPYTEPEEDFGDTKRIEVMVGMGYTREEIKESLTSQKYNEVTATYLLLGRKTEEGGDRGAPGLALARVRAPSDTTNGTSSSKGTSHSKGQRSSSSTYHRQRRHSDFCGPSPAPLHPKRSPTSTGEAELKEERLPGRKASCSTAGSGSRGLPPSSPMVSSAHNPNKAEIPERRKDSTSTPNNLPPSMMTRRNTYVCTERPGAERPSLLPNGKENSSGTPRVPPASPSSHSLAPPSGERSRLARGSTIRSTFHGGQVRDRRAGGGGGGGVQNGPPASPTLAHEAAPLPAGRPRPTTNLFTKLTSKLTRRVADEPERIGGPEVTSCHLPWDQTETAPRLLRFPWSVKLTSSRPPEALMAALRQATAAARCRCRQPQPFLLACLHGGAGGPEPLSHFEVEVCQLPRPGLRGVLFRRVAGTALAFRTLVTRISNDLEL
Description: as §1, §2

T5 sequence (Q5TCY1 whole entry): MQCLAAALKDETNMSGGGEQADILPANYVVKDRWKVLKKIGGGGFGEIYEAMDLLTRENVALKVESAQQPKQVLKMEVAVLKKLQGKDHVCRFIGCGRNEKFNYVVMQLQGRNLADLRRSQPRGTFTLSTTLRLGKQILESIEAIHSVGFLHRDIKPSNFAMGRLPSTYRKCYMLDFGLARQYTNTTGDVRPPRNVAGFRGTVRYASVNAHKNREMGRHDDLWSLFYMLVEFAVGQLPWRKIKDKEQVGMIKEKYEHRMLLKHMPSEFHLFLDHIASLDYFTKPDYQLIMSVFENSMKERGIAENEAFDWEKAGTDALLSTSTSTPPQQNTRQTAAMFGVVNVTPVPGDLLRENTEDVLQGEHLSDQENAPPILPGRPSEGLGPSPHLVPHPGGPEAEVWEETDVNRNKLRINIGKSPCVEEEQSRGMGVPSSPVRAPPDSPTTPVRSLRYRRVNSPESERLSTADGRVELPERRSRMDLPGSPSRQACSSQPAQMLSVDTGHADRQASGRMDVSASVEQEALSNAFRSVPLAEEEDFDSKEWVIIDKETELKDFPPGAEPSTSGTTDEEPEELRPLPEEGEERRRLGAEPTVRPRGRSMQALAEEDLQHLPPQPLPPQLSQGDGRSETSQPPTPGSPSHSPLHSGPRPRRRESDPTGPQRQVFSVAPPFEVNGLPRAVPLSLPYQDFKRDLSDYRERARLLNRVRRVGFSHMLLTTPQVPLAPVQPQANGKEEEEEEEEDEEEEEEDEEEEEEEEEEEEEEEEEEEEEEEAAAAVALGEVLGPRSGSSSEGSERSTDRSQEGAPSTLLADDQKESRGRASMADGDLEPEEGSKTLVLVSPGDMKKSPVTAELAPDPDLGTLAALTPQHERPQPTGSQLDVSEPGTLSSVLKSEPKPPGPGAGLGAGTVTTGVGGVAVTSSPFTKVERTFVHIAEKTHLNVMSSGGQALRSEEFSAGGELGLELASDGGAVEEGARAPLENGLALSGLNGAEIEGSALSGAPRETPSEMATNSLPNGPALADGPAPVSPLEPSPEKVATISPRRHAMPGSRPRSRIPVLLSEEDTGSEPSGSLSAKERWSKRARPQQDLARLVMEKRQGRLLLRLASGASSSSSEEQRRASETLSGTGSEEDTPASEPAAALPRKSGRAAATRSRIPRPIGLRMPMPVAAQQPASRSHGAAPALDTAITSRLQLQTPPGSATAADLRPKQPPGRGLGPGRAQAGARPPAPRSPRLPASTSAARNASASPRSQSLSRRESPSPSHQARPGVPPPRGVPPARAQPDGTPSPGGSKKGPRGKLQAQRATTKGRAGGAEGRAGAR
T6 sequence (O96013 whole entry): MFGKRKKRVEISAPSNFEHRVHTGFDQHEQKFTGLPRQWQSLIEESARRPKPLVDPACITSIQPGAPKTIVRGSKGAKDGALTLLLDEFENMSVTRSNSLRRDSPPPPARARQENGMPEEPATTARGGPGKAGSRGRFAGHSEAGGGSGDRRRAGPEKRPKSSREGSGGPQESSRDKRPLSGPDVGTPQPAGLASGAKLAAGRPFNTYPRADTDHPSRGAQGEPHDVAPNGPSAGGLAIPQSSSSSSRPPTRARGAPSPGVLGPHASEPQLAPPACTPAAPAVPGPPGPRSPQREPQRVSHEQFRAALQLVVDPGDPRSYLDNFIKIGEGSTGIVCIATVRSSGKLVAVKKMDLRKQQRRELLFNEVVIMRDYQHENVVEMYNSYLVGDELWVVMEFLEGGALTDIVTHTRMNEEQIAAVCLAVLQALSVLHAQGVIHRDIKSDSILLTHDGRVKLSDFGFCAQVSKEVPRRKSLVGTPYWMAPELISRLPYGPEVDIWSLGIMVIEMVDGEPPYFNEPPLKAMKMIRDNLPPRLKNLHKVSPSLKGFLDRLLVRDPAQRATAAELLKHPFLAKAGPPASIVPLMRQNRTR
T3 sequence (Q86Z02 whole entry): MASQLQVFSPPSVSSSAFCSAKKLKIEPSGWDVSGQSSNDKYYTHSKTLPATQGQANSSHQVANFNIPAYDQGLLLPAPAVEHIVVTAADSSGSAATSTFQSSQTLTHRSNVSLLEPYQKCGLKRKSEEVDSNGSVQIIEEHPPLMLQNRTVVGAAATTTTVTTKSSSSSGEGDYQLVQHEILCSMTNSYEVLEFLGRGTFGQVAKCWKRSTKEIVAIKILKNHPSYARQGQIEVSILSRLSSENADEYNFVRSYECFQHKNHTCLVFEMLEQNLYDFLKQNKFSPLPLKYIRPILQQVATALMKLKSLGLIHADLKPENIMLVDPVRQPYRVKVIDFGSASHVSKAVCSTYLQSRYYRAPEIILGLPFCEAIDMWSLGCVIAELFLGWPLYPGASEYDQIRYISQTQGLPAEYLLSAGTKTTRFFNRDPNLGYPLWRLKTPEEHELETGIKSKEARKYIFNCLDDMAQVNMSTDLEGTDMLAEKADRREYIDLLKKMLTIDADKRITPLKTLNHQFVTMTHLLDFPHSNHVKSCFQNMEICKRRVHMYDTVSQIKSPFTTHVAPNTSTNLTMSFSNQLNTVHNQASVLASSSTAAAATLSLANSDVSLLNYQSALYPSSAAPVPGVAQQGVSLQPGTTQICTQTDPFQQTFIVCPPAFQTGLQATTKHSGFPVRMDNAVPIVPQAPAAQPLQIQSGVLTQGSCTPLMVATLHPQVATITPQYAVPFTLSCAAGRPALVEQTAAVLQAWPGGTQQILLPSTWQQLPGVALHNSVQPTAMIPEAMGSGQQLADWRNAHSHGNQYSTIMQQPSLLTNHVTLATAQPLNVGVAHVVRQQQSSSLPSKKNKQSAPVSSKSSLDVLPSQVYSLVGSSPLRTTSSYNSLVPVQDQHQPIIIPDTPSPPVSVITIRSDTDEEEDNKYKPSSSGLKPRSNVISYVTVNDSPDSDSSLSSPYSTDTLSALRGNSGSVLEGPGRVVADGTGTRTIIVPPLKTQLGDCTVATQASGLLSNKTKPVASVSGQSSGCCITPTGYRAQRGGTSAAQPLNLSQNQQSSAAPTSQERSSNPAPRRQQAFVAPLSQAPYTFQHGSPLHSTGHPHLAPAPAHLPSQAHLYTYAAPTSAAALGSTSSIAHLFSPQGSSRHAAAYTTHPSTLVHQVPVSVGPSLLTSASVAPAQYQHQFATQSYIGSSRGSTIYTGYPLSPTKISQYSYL

Compound | TSSK4 PoC at 1 μM [1] | TAOK3 PoC at 1 μM [2] | HIPK1 PoC at 1 μM [3] | TSSK3 PoC at 1 μM [4] | TTBK1 PoC ([5]; ATP at Km) | PAK4 PoC at 1 μM [6] | MARK4 PoC at 1 μM [7] | IC50 [5] | IC50 ([5]; ATP at Km, dose–response 9-pt curve)
COC(C)(C)C#Cc1ccc2[nH]c3c(c2c1)-c1nc(N)ncc1CCC3 [Compound 11] | 101 PoC | 89 PoC | 96 PoC | 75 PoC | 117 PoC and 117/NT PoC | 91 PoC | 103 PoC | – | –
CC(C)(O)C#Cc1ccc2[nH]cc(-c3ccnc(N)n3)c2c1 [Compound 3] | 78 PoC | 20 PoC | 87 PoC | 5 PoC | 43 PoC | 30 PoC | 43 PoC | – | –
CC(C)(O)C#Cc1ccc2[nH]c3c(c2c1)-c1nc(N)ncc1CC3 [Compound 1] | 55 PoC | 11 PoC | 76 PoC | 11 PoC | 78 PoC | 58 PoC | 53 PoC | > 1 µM | 3.14 µM
CC(C)(O)C#Cc1ccc2[nH]c3c(c2c1)-c1nc(N)ncc1CCC3 [AMG28, reference compound] | 70 PoC | 9 PoC | 67 PoC | 1 PoC | – | 8 PoC | 18 PoC | – | –
CC(C)(O)C#Cc1ccc2[nH]c3c(c2c1)-c1nc(N)ncc1CCCC3 [Compound 2] | 77 PoC | 78 PoC | 96 PoC | 120 PoC | 92 PoC and 92/NT^[c] PoC | 67 PoC | 86 PoC | – | –
